# Like-named read-outs stand apart in the source and are kept apart here.
# Experiments:
# Format in all cases: in vivo, mouse
# leukemia cell line T739 [1] = details: T739 mice; for Number of live animals remaining in the group: 30 mice per group
# Procedure: The survival time of the […] after tumor injection and treatment was studied.
# (§1) The biological composition comprising 10^8 cells per ml of activated and conditioned yeast cells of the strain Saccharomyces cerevisiae Hansen strain AS2.11 was prepared by the methods described in Section 5.1 and subsections therein.
# The animals were prepared in a similar manner as described in Section 8.1.
# The mice injected with tumor cells were immediately divided into 4 experimental groups of ten mice per group and one control group. The four experimental groups were triplicated (i.e., using a total of 120 mice in the experimental groups). In group 2AY, the mice received 0.3 ml of the biological composition once per day. In group 2NY, the mice received 0.3 ml of the untreated yeast cells once per day. […] In group 2CK1, the mice received 0.3 ml of physiological saline once per day.
# (§2) The mice in group CK2 also started receiving saline on the same day as the other four groups. […] The mice were observed over 6 months from the day of tumor inoculation and survival was recorded. The number of tumor cells in the mice were determined by standard techniques.
# leukemia cell line L6565 [2] = details: SWI mice
# Procedure: as §1
# (§3) The mice injected with tumor cells were immediately divided into 4 experimental groups of ten mice per group and one control group. The four experimental groups were triplicated (i.e., using a total of 120 mice in the experimental groups).
# (§4) The mice in group CK2 also started receiving saline on the same day as the other four groups. […] The number of tumor cells in the mice were determined by standard techniques.
# leukemia cell line T739 [3] = details: T739 mice
# Procedure: as §1, §3, §4
# leukemia cell line L6565 [4] = details: SWI mice; for Number of live animals remaining in the group: 30 mice per group
# Procedure: The survival time of mice after tumor injection and treatment was studied.
# as §1
# The animals were prepared in a similar manner as described in Section 6.1.
# The mice injected with tumor cells were kept for 5 days and then were divided into 4 experimental groups of ten mice per group and one control group. The four experimental groups were triplicated (i.e., using a total of 120 mice in the experimental groups). In group 2AY, the mice received 0.3 ml of the biological composition once per day. In group 2NY, the mice received 0.3 ml of the untreated yeast cells once per day. […] In group 2CK1, the mice received 0.3 ml of physiological saline once per day.
# as §2
# [5] = 1 month after cessation of treatment
# [6] = 2 months after cessation of treatment
# [7] = 3 months after cessation of treatment
# [8] = 4 months after cessation of treatment
# [9] = 5 months after cessation of treatment
# [10] = 6 months after cessation of treatment
smiles,measurement,setting,value
"O=P1(N(CCCl)CCCl)NCCCO1 (centres unmarked) [CTX, cyclophosphamide]",Number of live animals remaining in the group,leukemia cell line T739 [1]; 0 month after cessation of treatment,28
same,Number of live animals remaining in the group,leukemia cell line T739 [1]; [5],19
same,Number of live animals remaining in the group,leukemia cell line T739 [1]; [6],3
same,Number of live animals remaining in the group,leukemia cell line T739 [1]; [7],0
same,Number of live animals remaining in the group,leukemia cell line T739 [1]; [8],0
same,Number of live animals remaining in the group,leukemia cell line T739 [1]; [9],0
same,Number of live animals remaining in the group,leukemia cell line T739 [1]; [10],0
same,survival outcome during the experiment,leukemia cell line T739 [1]; observed over 6 months,died during the experiment
same,development of leukemia,"leukemia cell line L6565 [2]; L6565, 21 days of treatment",developed leukemia
same,number of leukemia cells and standard deviation,"leukemia cell line L6565 [2]; L6565 cells s.c., 21 consecutive days of treatment, sacrificed on 22nd day (or measured at time of death)",933 ± 241 cells/ml
same,number of leukemia cells and standard deviation,"leukemia cell line T739 [3]; T739 cells s.c., 21 consecutive days of treatment, sacrificed on 22nd day (or measured at time of death)",957 ± 132 cells/ml
same,development of leukemia,leukemia cell line T739 [3]; 21 days of treatment,developed leukemia
same,Number of live animals remaining in the group,leukemia cell line L6565 [4]; 0 month after cessation of 21 days of treatment,28
same,Number of live animals remaining in the group,leukemia cell line L6565 [4]; [5],19
same,Number of live animals remaining in the group,leukemia cell line L6565 [4]; [6],3
same,Number of live animals remaining in the group,leukemia cell line L6565 [4]; [7],0
same,Number of live animals remaining in the group,leukemia cell line L6565 [4]; [8],0
same,Number of live animals remaining in the group,leukemia cell line L6565 [4]; [9],0
same,Number of live animals remaining in the group,leukemia cell line L6565 [4]; [10],0
same,survival outcome during the experiment,leukemia cell line L6565 [4]; observed over 6 months,died during the experiment

# — patent US20040253252A1, “Biological compositions and methods for treatment of leukemia” (priority 2003, published 2004)
